In ChEMBL document CHEMBL1909046, “DrugMatrix in vitro pharmacology data”:

How the values were obtained:
[1] = DRUGMATRIX: ATPase, Na+/K+ enzyme inhibition (substrate: ATP); format: tissue-based, Sus scrofa, Heart; details: Not Active = under 50% inhibition at 10 µM
[2] = DRUGMATRIX: Calcium Channel Type L, Benzothiazepine radioligand binding (ligand: [3H] Diltiazem); format: cell membranes, Rattus norvegicus, Wistar, Brain, Membrane; details: Not Active = under 50% inhibition at 10 µM
[3] = DRUGMATRIX: Calcium Channel Type L, Dihydropyridine radioligand binding (ligand: [3H] Nitrendipine); format: cell membranes, Rattus norvegicus, Wistar, Cerebral cortex, Membrane; details: Not Active = under 50% inhibition at 10 µM
[4] = DRUGMATRIX: Tumor Necrosis Factor (TNF), Non-Selective radioligand binding (ligand: [125I] TNF-alpha); format: cell membranes, Membrane; details: u-937; Not Active = under 50% inhibition at 10 µM
[5] = target: T1, Muscarinic acetylcholine receptor M4 (Homo sapiens, UniProt P08173); format: cell membranes, CHO-K1, Membrane; details: cho-k1; note: in other assays of this panel Not Active means under 50% inhibition at 10 µM
T1 sequence (P08173 whole entry): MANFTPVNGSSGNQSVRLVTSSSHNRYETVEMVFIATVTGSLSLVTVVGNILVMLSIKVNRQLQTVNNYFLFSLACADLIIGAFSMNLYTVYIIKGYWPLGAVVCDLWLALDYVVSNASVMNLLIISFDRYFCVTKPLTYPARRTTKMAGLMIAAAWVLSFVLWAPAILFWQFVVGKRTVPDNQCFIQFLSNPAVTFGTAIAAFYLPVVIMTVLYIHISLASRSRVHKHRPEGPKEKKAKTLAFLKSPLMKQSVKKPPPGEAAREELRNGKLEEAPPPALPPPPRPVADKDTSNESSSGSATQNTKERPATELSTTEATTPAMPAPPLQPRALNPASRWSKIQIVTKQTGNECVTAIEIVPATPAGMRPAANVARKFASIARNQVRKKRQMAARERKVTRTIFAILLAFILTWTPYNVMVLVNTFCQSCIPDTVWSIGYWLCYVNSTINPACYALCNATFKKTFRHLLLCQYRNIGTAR

[6] = target: Delta-type opioid receptor (Homo sapiens, UniProt P41143); format: cell membranes, HEK293, Membrane; details: hek293; note: in other assays of this panel Not Active means under 50% inhibition at 10 µM
[7] = target: Adenosine receptor A2a (Homo sapiens, UniProt P29274); experiment: DRUGMATRIX: Adenosine A2A radioligand binding (ligand: […]); format: cell membranes, HEK293, Membrane; details: hek293; Not Active = under 50% inhibition at 10 µM
Sequence of Adenosine receptor A2a (P29274 whole entry): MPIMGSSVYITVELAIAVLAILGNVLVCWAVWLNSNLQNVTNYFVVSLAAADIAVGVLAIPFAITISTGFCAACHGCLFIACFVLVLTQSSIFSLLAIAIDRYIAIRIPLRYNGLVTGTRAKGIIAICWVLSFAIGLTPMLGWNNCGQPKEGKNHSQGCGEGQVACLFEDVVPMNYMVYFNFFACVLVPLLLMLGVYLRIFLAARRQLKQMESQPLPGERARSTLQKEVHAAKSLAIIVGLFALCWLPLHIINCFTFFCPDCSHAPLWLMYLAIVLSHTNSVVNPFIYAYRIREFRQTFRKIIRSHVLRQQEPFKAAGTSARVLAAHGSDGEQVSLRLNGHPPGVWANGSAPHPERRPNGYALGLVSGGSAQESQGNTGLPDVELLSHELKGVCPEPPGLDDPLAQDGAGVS

Sequence of Delta-type opioid receptor (P41143 whole entry): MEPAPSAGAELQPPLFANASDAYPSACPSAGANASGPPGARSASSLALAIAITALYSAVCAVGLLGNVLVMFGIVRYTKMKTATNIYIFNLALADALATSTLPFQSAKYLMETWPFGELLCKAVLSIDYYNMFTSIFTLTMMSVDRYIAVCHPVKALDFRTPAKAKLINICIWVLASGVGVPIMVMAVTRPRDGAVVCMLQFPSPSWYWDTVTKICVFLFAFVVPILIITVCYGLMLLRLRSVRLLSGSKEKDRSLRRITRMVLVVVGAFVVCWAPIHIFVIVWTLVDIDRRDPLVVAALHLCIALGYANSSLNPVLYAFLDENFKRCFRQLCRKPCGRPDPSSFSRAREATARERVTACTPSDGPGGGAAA

NC[C@@H]1O[C@H](O[C@H]2[C@@H](O)[C@H](O[C@@H]3[C@@H](O)[C@H](N)C[C@H](N)[C@H]3O[C@H]3O[C@H](CN)[C@@H](O)[C@H](O)[C@H]3N)O[C@@H]2CO)[C@H](N)[C@@H](O)[C@@H]1O [FRAMYCETIN]
Not Active: IC50 [1] | Ki [1] | IC50 [2] | Ki [2] | IC50 [3] | Ki [3] | IC50 [4] | Ki [4] | IC50 [5] | IC50 [6] | IC50 [7]

C[C@H]([C@](O)(Cn1cncn1)c1ccc(F)cc1F)S(C)(=O)=O [GENACONAZOLE]
Not Active: IC50 [1] | Ki [1] | IC50 [2] | Ki [2] | IC50 [3] | Ki [3] | IC50 [4] | Ki [4] | IC50 [5] | IC50 [6] | IC50 [7]

Cc1cnc(C(=O)NCCc2ccc(S(=O)(=O)NC(=O)NC3CCCCC3)cc2)cn1 [GLIPIZIDE]
Not Active: IC50 [1] | Ki [1] | IC50 [2] | Ki [2] | IC50 [3] | Ki [3] | IC50 [4] | Ki [4] | IC50 [5] | IC50 [6] | IC50 [7]

Cc1c(F)c(N2CCNC(C)C2)cc2c1c(=O)c(C(=O)O)cn2C1CC1 (configuration not stated) [GREPAFLOXACIN]
Not Active: IC50 [1] | Ki [1] | IC50 [2] | Ki [2] | IC50 [3] | Ki [3] | IC50 [4] | Ki [4] | IC50 [5] | IC50 [6] | IC50 [7]

COc1ccccc1OCC(O)CO (configuration not stated) [GUAIFENESIN]
Not Active: IC50 [1] | Ki [1] | IC50 [2] | Ki [2] | IC50 [3] | Ki [3] | IC50 [4] | Ki [4] | IC50 [5] | IC50 [6] | IC50 [7]

N=C(N)N/N=C/c1c(Cl)cccc1Cl [GUANABENZ]
Not Active: IC50 [1] | Ki [1] | IC50 [2] | Ki [2] | IC50 [3] | Ki [3] | IC50 [4] | Ki [4] | IC50 [5] | IC50 [6] | IC50 [7]

C[C@]12CCC(=O)C=C1CC[C@@H]1[C@@H]2[C@@H](O)C[C@@]2(C)[C@H]1CC[C@]2(O)C(=O)CO [HYDROCORTISONE]
Not Active: IC50 [1] | Ki [1] | IC50 [2] | Ki [2] | IC50 [3] | Ki [3] | IC50 [4] | Ki [4] | IC50 [5] | IC50 [6] | IC50 [7]

C/C=C\c1ccc(O)c(OC)c1 [ISOEUGENOL]
Not Active: IC50 [1] | Ki [1] | IC50 [2] | Ki [2] | IC50 [3] | Ki [3] | IC50 [4] | Ki [4] | IC50 [5] | IC50 [6] | IC50 [7]

NC[C@H]1O[C@H](O[C@H]2[C@H](O)[C@@H](O[C@H]3O[C@H](CO)[C@@H](O)[C@H](N)[C@H]3O)[C@H](N)C[C@@H]2N)[C@H](O)[C@@H](O)[C@@H]1O [KANAMYCIN]
Not Active: IC50 [1] | Ki [1] | IC50 [2] | Ki [2] | IC50 [3] | Ki [3] | IC50 [4] | Ki [4] | IC50 [5] | IC50 [6] | IC50 [7]

CC[C@H](C)C(=O)O[C@H]1C[C@@H](C)C=C2C=C[C@H](C)[C@H](CC[C@@H]3C[C@@H](O)CC(=O)O3)[C@H]21 [LOVASTATIN]
Not Active: IC50 [1] | Ki [1] | IC50 [2] | Ki [2] | IC50 [3] | Ki [3] | IC50 [4] | Ki [4] | IC50 [5] | IC50 [6] | IC50 [7]

CC(C(=O)O)c1ccc(CC2CCCC2=O)cc1 (configuration not stated) [LOXOPROFEN]
Not Active: IC50 [1] | Ki [1] | IC50 [2] | Ki [2] | IC50 [3] | Ki [3] | IC50 [4] | Ki [4] | IC50 [5] | IC50 [6] | IC50 [7]

Cc1cccc(Nc2ccccc2C(=O)O)c1C [MEFENAMIC ACID]
Not Active: IC50 [1] | Ki [1] | IC50 [2] | Ki [2] | IC50 [3] | Ki [3] | IC50 [4] | Ki [4] | IC50 [5] | IC50 [6] | IC50 [7]

CC(=O)O[C@]1(C(C)=O)CC[C@H]2[C@@H]3C=C(C)C4=CC(=O)CC[C@]4(C)[C@H]3CC[C@@]21C [MEGESTROL ACETATE]
Not Active: IC50 [1] | Ki [1] | IC50 [2] | Ki [2] | IC50 [3] | Ki [3] | IC50 [4] | Ki [4] | IC50 [5] | IC50 [6] | IC50 [7]

COc1ccccc1OCC(O)COC(N)=O (configuration not stated) [METHOCARBAMOL]
Not Active: IC50 [1] | Ki [1] | IC50 [2] | Ki [2] | IC50 [3] | Ki [3] | IC50 [4] | Ki [4] | IC50 [5] | IC50 [6] | IC50 [7]

CN(Cc1cnc2nc(N)nc(N)c2n1)c1ccc(C(=O)N[C@@H](CCC(=O)O)C(=O)O)cc1 [METHOTREXATE]
Not Active: IC50 [1] | Ki [1] | IC50 [2] | Ki [2] | IC50 [3] | Ki [3] | IC50 [4] | Ki [4] | IC50 [5] | IC50 [6] | IC50 [7]

COC(=O)c1ccccc1O [METHYL SALICYLATE]
Not Active: IC50 [1] | Ki [1] | IC50 [2] | Ki [2] | IC50 [3] | Ki [3] | IC50 [4] | Ki [4] | IC50 [5] | IC50 [6] | IC50 [7]

COc1ccc2cc(CCC(C)=O)ccc2c1 [NABUMETONE]
Not Active: IC50 [1] | Ki [1] | IC50 [2] | Ki [2] | IC50 [3] | Ki [3] | IC50 [4] | Ki [4] | IC50 [5] | IC50 [6] | IC50 [7]
